Measured values published in the OligoGym collection.
These antisense oligonucleotides have a phosphorothioate backbone; sugars and methylation of C are not fully specified.

target: CD44; details: ASO
Note: test concentration or dose not given here.

Row | Sequence | remaining target (mRNA or protein) (fraction of control)
1 | GCAAGAATCAAAGCCAAG | ≥ 1
2 | GCCATTCTGGAATTTGGG | ≥ 1
3 | GCCTCCAAGTGGAACTGA | 0.99
4 | GCGGCAGGTTATATTCAA | ≥ 1
5 | GCTGCTCCTTTCACTGGA | 0.9
6 | GGCACGAGGCAGAGTCCC | ≥ 1
7 | GGCAGGTCTGTGACTGAT | ≥ 1
8 | GGCCTCTCCGTTGAGTCC | ≥ 1
9 | GGCTTTCTGTCCTCCACA | ≥ 1
10 | GGGCCCTAATTTACAAAG | 0.88
11 | GGTTATGTTTCCAACGGT | ≥ 1
12 | GGTTGGCGATCAGGAATA | ≥ 1
13 | GTCCTCCACAGCTCCATT | ≥ 1
14 | GTCTCCCAGAAGCATCTG | ≥ 1
15 | GTGGAGCTGAAGCATTGA | ≥ 1
16 | GTGGGCAAGGTGCTATTG | ≥ 1
17 | GTGTTGTTTGCTGCACAG | ≥ 1
18 | GTTGTGTTTGCTCCACCT | 0.92
19 | GTTTCCAACGGTTGTTTC | ≥ 1
20 | TAAGTGTCCCAGCTCCCT | 0.98

Row | Sequence | remaining target (mRNA or protein) (fraction of control)
21 | TACACCTGCAAAGCGGCA | ≥ 1
22 | TAGCGGGTGCCATCACGG | ≥ 1
23 | TCAAAGGACTGATCCAGG | ≥ 1
24 | TCATGTCCACATTCTGCA | 0.81
25 | TCCACTTGGCTTTCTGTC | ≥ 1
26 | TCCATCAAAGGCATTGGG | ≥ 1
27 | TCCCAGCTCCCTGTAATG | ≥ 1
28 | TCTCCATCTGGGCCATTG | ≥ 1
29 | TCTTCTGCCCACACCTTC | ≥ 1
30 | TCTTGGTCTCTGGTAGCA | ≥ 1
31 | TGACTGCAATGCAAACTG | ≥ 1
32 | TGAGACTTGCTGGCCTCT | 0.93
33 | TGCAGAGGTCAGCGGCCT | ≥ 1
34 | TGCTATTGAAAGCCTTGC | ≥ 1
35 | TGGGAGGTGTTGTATGTG | ≥ 1
36 | TGGTAGCAGGGATTCTGT | ≥ 1
37 | TTGACTCCCATGTGAGTG | ≥ 1
38 | TTGCTCCACCTTCTTGAC | ≥ 1
39 | TTTCCTCCCAGGGACCAG | ≥ 1
40 | TTTGCTGCACAGATGGAG | ≥ 1

target: TFRC; details: ASO

Row | Sequence | remaining target (mRNA or protein) (fraction of control)
41 | AAACAAGTCTACCGTTCT | ≥ 1
42 | AAACCTTGAAGTTGCTGG | 0.93
43 | AACTGGTTCTCTTTCAAT | 0.95
44 | AAGCTGCTGCCTAAAGAC | ≥ 1
45 | AATTATGGGAAACACTGT | ≥ 1
46 | ACACTGCTCCCGATAATG | ≥ 1
47 | ACGCCAGACTTTGCTGAG | 0.38
48 | ACTGACCAGCGACCTCTG | 0.58
49 | AGACCAGCCCTTAGGATT | 0.56
50 | AGAGGCAGTTCCCATTAC | 0.46
51 | AGATCCCTCACAAATGAA | ≥ 1
52 | AGCTATGGGTATCACATT | ≥ 1
53 | AGGAAACCTGCTACATTC | ≥ 1
54 | AGTCCAAGATAAAAGAGG | ≥ 1
55 | ATAGCAGATACTTCCACT | 0.96
56 | ATATTGAGCCTGTTAGCA | 0.95
57 | ATCTCAGTGCCAAAAGGA | ≥ 1
58 | ATTAAGTAGAGGACCTGG | 0.66
59 | ATTCTTATCTGGTCAGTG | ≥ 1
60 | ATTCTTGCTTTCTGAGGT | ≥ 1
61 | CAAAGTAAGCGAACCACT | ≥ 1

Row | Sequence | remaining target (mRNA or protein) (fraction of control)
62 | CAACCCTAACTGTAGAAA | ≥ 1
63 | CACAGCAATAGTCCCATA | 0.67
64 | CACCCGAACCAGGAATCT | ≥ 1
65 | CACGAGGGTCGGTGTAGT | ≥ 1
66 | CACTTTGTTCAACTCAGG | ≥ 1
67 | CAGCAAGTTTCATCTCCA | 0.83
68 | CAGCCCCGCAGGATGAAG | ≥ 1
69 | CATGTCCAAAGAATGAAA | 0.95
70 | CATTCTGAACTGCCACAC | 0.62
71 | CCAATCATAAATCCAATC | ≥ 1
72 | CCACGAGCAGAATACAGC | ≥ 1
73 | CCCTGCTCTGACAATCAC | 0.9
74 | CCGAGATGGTGGAAACTG | ≥ 1
75 | CCGCCACAGCCCCTTCCC | 0.95
76 | CCTCCGTCCCGAGCCGCC | 0.43
77 | CGCTTTCCCGCTCCCCGT | ≥ 1
78 | CGGATGCTTCACATTTTG | ≥ 1
79 | CGGTTCCTGCCAGTCTCT | 0.54
80 | CTACCCCTTTACAATAGC | 0.96
81 | CTCATTGGCAAGAAAACA | 0.94
82 | CTCCGACAACTTTCTCTT | ≥ 1

Row | Sequence | remaining target (mRNA or protein) (fraction of control)
83 | CTCTGGAGATTGTCTGGA | 0.76
84 | CTGAAGAGACCCTATGAA | 0.97
85 | CTGGCTCCTCCCTCACTG | 0.75
86 | CTGTGCTGTCCAGTTTCT | 0.9
87 | GAACTAAATGGAGGCTTA | ≥ 1
88 | GAAGCCCGCACTCACACT | 0.8
89 | GCGGCTCCCTATGGCTGC | ≥ 1
90 | GGAAACTGAGTGTGATTG | ≥ 1
91 | GGAAAGGGAAAGCAGCAT | 0.95
92 | GGGTTTTATTAGCAGATG | ≥ 1
93 | GGTTTCTGAACAGCGTTT | ≥ 1
94 | GTCTCCAGCACTCCAACT | ≥ 1
95 | GTCTGTTTTCTCAGCATT | ≥ 1
96 | GTGACACATTCAAGTGAG | ≥ 1
97 | GTTATCGCCATCTACTTG | ≥ 1
98 | GTTGTTAGTCTGGAAGTA | 0.9
99 | TACACCTTGGATAAACTG | 0.93
100 | TACCCAAATAAGGATAAT | ≥ 1
101 | TAGAGTCTGTTTTCCAGT | ≥ 1
102 | TATACCTTTACCTCCAAA | 0.99
103 | TATCTGAGAACATCTGGG | ≥ 1

Row | Sequence | remaining target (mRNA or protein) (fraction of control)
104 | TATGATGGTTCACTCACG | ≥ 1
105 | TATTGTCAGCATTTTCTT | ≥ 1
106 | TCAACATACAACGCAAGA | 0.65
107 | TCAACCTGGTATCTCCTA | 0.65
108 | TCAAGTTCTCCAGTAAAG | ≥ 1
109 | TCATTTTATCCAGCAGAA | 0.79
110 | TCCAGGTGTGTAAGGGTC | ≥ 1
111 | TGGGCAAGTTTCAATAGG | ≥ 1
112 | TGGTGCTGGTGAAGTCTG | ≥ 1
113 | TTAACAACAACAGGAAAG | ≥ 1
114 | TTAATAACTCCAAAGATG | ≥ 1
115 | TTACAACCTTCAGCAGAG | ≥ 1
116 | TTACCCACCCAATGCTTA | 0.89
117 | TTCTCCACCAAACAAGTT | ≥ 1
118 | TTCTTTCAGGAATGAGGA | 0.96
119 | TTGGCTTCTGGTCCCCTC | 0.38
120 | TTGGTTTTGTGACATTGG | 0.92
121 | TTTAACATCAGGTTTTGT | ≥ 1
122 | TTTAAGTCAAAAGGTCAA | ≥ 1
123 | TTTAGCATCAAATGAAGT | ≥ 1
124 | TTTGGCTGACGGCTGTTT | 0.39

target: TNFRSF1A; details: ASO

Row | Sequence | remaining target (mRNA or protein) (fraction of control)
125 | AAAGGCAAAGACCAAAGA | 0.69
126 | AAAGGCTCAGGGACGAAC | 0.58
127 | ACAAAACAAAACAAAACA | 0.73
128 | ACAGTTGAGGGTTGAGAC | 0.7
129 | ACGGTCCCATTGAGGCAG | 0.66
130 | ACGGTGTTCTGTTTCTCC | 0.93
131 | ACTGTGGTGCCTGAGTCC | 0.69
132 | AGACTCGGGCATAGAGAT | ≥ 1
133 | AGCCGCTCTCACACTCCC | 0.64
134 | AGCGGCAGCAGCAGGTCA | ≥ 1
135 | AGCTGAGGCAGTGTCTGA | 0.73
136 | AGCTGGAGGTGAAGGTGG | ≥ 1
137 | AGGAGGGATAAAAGGCAA | 0.78
138 | AGGCAGTGTCTGAGGTGG | ≥ 1
139 | AGGCCCCATTGTTCCGTG | ≥ 1
140 | AGGCTCTGTGGCTTGTGG | 0.53
141 | AGGGCAGTGTGGCAGCGG | 0.47
